Test results from US12103946B2, “Steroid compounds as Treg modulators and uses thereof” (New York University, priority 2018, dated 2024).
“Also recorded” adds a separate entry of the source.

Key:
[1] = Measurement of lipophilicity (octanol/ammonium bicarbonate partitioning, LC-MS); conditions: n-octanol / 50 mM ammonium bicarbonate, pH 8
Description: Measurement of lipophilicity. Partitioning Method: 2 μL of 10 mM stock solutions of each target compound was added to a 1 mL each of 50 mM ammonium bicarbonate (pH=8), and 1 mL of n-octanol in an Eppendorf tube. The resulting two-phase mixture was vortexed and then shaken for 18 h at 20° C. The two phases were then carefully separated into the aqueous sample (bottom layer), and organic sample (top-layer) and placed separately in autosampler vials and analyzed by LC-MS/MS. LC-MS Method: a Thermo q-Exactive Plus LC-MS equipped with an Ultimate 3000 HPLC was operated in negative ion mode after optimized to detect the [M− H]^− of the bile acids. […] A Dikma Inspire C8 column (3 μm particle size, 100 mm length, 4.6 mm ID) was used for analysis. Each injection was 5 μL, and a constant flow rate of 0.400 L/min was used. The gradient started at 0% B and was held constant for 2 minutes. Then the mobile phase composition was linearly changed to 100% B over 8 minutes and held at 100% for the following 5 minutes. The mobile phase composition was changed to 0% B over the following 0.1 minutes and the system was allowed to equilibrate to starting conditions over 1.9 minutes. Standards of all targets were used to establish retention times. Better than 2 ppm mass accuracy was obtained on all measurements. The LC-MS analysis was done in triplicate, while the partitioning was done once for each target's [M− H]^− ion. Calculation of log D: the total response of target in octanol was divided by the total response in the aqueous phase to get a partitioning coefficient. Then, log base 10 was taken and reported.

[2] = test system: colon lamina propria Th17 cells; assay: Citrobacter rodentium infection of germ-free mice; type: in vivo, mouse; conditions: germ-free B6 mice, C. rodentium, 0.3% diet
From the text: For the box plots (a, b), the three horizontal lines of the box represent the third quartile, median and first quartile, respectively from top to bottom. […] Mice were fed an autoclaved diet with or without 3-oxoLCA (0.3%) (n=9 mice/group).

naïve CD4+ T cells = assay: Cell proliferation assay (CFSE); type: cell-based, mouse; conditions: 3 days, vs DMSO
Description: Data are representative of two independent experiments (b, d).
Cell Proliferation Assay. Naïve CD4^+ T cells were labeled with 1 μM carboxyfluorescein succinimidyl ester (CFSE, BioLegend) and cultured for 3 days prior to FACS analysis.

[3] = test system: ileal lamina propria Th17 and Treg cells; assay: SFB-dependent Th17 cells in mice fed bile acid diet; type: in vivo, mouse; conditions: 0.3% diet
Description: (§1) Data are shown as the mean±standard deviation by unpaired t-test with 2-tailed p-value.
Cells were then analyzed by flow cytometry.

[4] = test system: naïve CD4+ T cells (Th1 or Th2 cells); assay: In vitro Th1 and Th2 differentiation (IFN-γ, IL-4, T-bet, GATA3); type: cell-based, mouse; conditions: 20 μM, day 5
Description: In Vitro T Cell Culture. Naïve CD4^+ (CD62L^+ CD44^− CD25^− CD4^+) T cells were isolated from the spleens and the lymph nodes of mice of designated genotypes with FACS sorting. For certain experiments, naïve CD4^+ T cells were enriched using naïve CD4^+ T cell isolation kits (Miltenyi). Naïve CD4^+ T cells (40,000 cells) were cultured in a 96-well plate pre-coated with hamster IgG (MP Biomedicals) in T cell medium (RPMI, 10% fetal bovine serum, 25 mM glutamine, 55 μM 2-mercaptoethanol, 100 U/mL penicillin, […] streptomycin) supplemented with 0.25 μg/mL anti-CD3 (clone 145-2C11) and 1 μg/mL anti-CD28 (clone 37.51). For Th0 culture, T cells were cultured with the addition of 100 U/mL of IL-2 (PEPROTECH). For Th1 cell differentiation, T cells were cultured with the addition of 100 U/mL of IL-2, 10 μg/mL of anti-IL-4 (clone 11B11) and 10 ng/mL of IL-12 (PEPROTECH). For Th2 cell differentiation, T cells were cultured with the addition of 10 μg/mL of anti-IFNγ (clone XMG1.2) and 10 ng/mL of IL-4 (R&D Systems). For Th17 cell differentiation, T cells were cultured with the addition of 10 ng/mL of IL-6 (eBioscience) and 0.5 ng/mL of TGF-β (PEPROTECH). […]
Flow Cytometry. […] All flow cytometry analyses were performed on an LSR II flow cytometer (BD) and data were analyzed with FlowJo software (TreeStar).

CD4+ T cells = assay: TCR activation markers (CD25, CD69, Nur77, CD44); type: cell-based, mouse
From the text: Representative FACS plots of CD4^+ T cells cultured for 3 days and stained intracellularly for FoxP3 (e). Quantification of FoxP3^+ and viable T cells after 3-day culture (f) (n=2/group). n, number of biologically independent samples. Data are representative of two independent experiments (b, d). Data in (c) are shown as the mean±standard deviation.

[5] = Bile acid quantification in mouse cecal contents by UPLC-MS; conditions: mice fed 0.3% (w/w) 3-oxoLCA chow for one week
From the text: as §1

logD at 18 h [1]: 2.4
average concentration in cecal contents [5]: 24 picomol/mg of wet mass
SMILES: C[C@H](CCC(=O)O)[C@H]1CC[C@H]2[C@@H]3CC[C@@H]4CC(=O)CC[C@]4(C)[C@H]3CC[C@]12C [3-oxoLCA, 3-oxolithocholic acid]
Th17 cell induction in the colon [2]: reduced Th17 cell induction in the colons of germ-free B6 mice infected with Citrobacter rodentium
cell proliferation (naïve CD4+ T cells): do not significantly affect cell proliferation; also recorded: did not affect cell proliferation
percentage of ileal Th17 cells ([3]; Jax-B6 mice gavaged with SFB, one week): significantly reduced the percentage of ileal Th17 cells
Th17 cell percentages ([3]; Tac-B6 mice with pre-existing SFB, 7 days): reduced levels of Th17 cell percentages
Treg percentages ([3]; Tac-B6 mice, 7 days): did not affect Treg percentages
T cell differentiation into Th1 or Th2 cells [4]: neither compound affected T cell differentiation into Th1 or Th2 cells
T cell receptor (TCR)-mediated activation (CD4+ T cells): do not significantly affect cell proliferation, cell viability, or T cell activation
